The target in test [1] is T1, cloned human δ receptors (Homo sapiens, UniProt P41143).
T1 construct: expressed in transfected cells; host or cells: HEK-293S cells
Kind of test: Human δ receptor binding assay (125I-Deltorphin II displacement).

Test [2] has as its target T1, cloned human δ receptors. The test is described as follows: Human δ receptor functional assay (GTP[γ]35S binding), high and low receptor expression. In kind it is biochemical. The procedure: Human 293S cells expressing cloned human κ, δ and μ receptors and neomycin resistance are grown in suspension at 37° C. and 5% CO2 in shaker flasks containing calcium-free DMEM10% FBS, 5% BCS, 0.1% Pluronic F-68, and 600 μg/ml geneticin.
Cells are pelleted and resuspended in lysis buffer (50 mM Tris, pH 7.0, 2.5 mM EDTA, with PMSF added just prior to use to 0.1 mM from a 0.1 M stock in ethanol), incubated on ice for 15 min, then homogenized with a polytron for 30 sec. The suspension is spun at 1000 g (max) for 10 min at 4° C. The supernatant is saved on ice and the pellets resuspended and spun as before. The supernatants from both spins are combined and spun at 46,000 g(max) for 30 min. The pellets are resuspended in cold Tris buffer (50 mM Tris/Cl, pH 7.0) and spun again. The final pellets are resuspended in membrane buffer ( 50 mM Tris, 0.32 M sucrose, pH 7.0). Aliquots (1 ml) in polypropylene tubes are frozen in dry ice/ethanol and stored at −70° C. until use. The protein concentrations are determined by a modified Lowry assay with sodium dodecyl sulfate.
The agonist activity of the compounds is measured by determining the degree to which the compounds receptor complex activates the binding of GTP to G-proteins to which the receptors are coupled. In the GTP binding assay, GTP[γ]^35S is combined with test compounds and membranes from HEK-293S cells expressing the cloned human opioid receptors or from homogenised rat or mouse brain. Agonists stimulate GTP[γ]^35S binding in these membranes. The EC50 and Emax values of compounds are determined from dose-response curves. Right shifts of the dose response curve by the delta antagonist naltrindole are performed to verify that agonist activity is mediated through delta receptors. For human […] functional assays, EC50 (low) is measured when the human δ receptors used in the assay were expressed at lower levels in comparison with those used in determining EC50 (high). The Emax values were determined in relation to the standard δ agonist SNC80, i.e., higher than 100% is a compound that have better efficacy than SNC80.
Rat brain membranes are thawed at 37° C., passed 3 times through a 25-gauge blunt-end needle and diluted in the GTPYS binding (50 mM Hepes, 20 mM NaOH, 100 mM NaCl, 1 mM EDTA, 5 mM MgCl2, pH 7.4, Add fresh: 1 mM DTT, 0.1% BSA). 120 μM GDP final is added membranes dilutions. The EC50 and Emax of compounds are evaluated from 10-point dose-response curves done in 300 μl with the appropriate amount of membrane protein (20 μg/well) and 100000-130000 dpm of GTPγ^35S per well (0.11-0.14 nM). The basal and maximal stimulated binding are determined in absence and presence of 3 μM SNC-80. The assay performed on HEK 293s cells stably expressing cloned Delta receptors is done in a slightly different buffer (50 mM Hepes, 20 mM NaOH, 200 mM NaCl, 1 mM EDTA, 5 mM MgCl2, pH 7.4, Add fresh: 0.5% BSA, no DTT) and with a 3 μM final conc. of GDP.
For orientation: GTPγS is a poorly hydrolysed GTP analogue; its binding reports G protein activation.

A further test addresses T2, cloned human μ receptors (Homo sapiens, UniProt P35372).
T2 construct: expressed in transfected cells; host or cells: Human 293S cells
The test is described as follows: Human μ receptor binding assay (125I-FK33824 displacement).

In another test the target is cloned human κ receptors (Homo sapiens, UniProt P41145). Kind of test: Human κ receptor binding assay (125I-DPDYN displacement). To be noted: Table 1.
Chain of cloned human κ receptors (P41145 whole entry): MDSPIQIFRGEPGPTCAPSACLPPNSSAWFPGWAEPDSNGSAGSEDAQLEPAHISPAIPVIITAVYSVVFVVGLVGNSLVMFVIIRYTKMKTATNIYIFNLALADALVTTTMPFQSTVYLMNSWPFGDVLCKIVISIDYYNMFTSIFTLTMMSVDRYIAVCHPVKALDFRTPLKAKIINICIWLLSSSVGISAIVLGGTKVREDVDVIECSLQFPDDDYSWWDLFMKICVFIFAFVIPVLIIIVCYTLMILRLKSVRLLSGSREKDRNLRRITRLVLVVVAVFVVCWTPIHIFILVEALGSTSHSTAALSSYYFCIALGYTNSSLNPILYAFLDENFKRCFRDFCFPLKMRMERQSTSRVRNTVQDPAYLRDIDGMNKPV
For test [3], the target named is T3, δ receptors in rat brain membranes (Rattus norvegicus, UniProt P33533).
T3 construct: membranes from HEK-293S cells expressing the cloned human opioid receptors or from homogenised rat or mouse brain; from tissue; host or cells: rat brain
T3 sequence (P33533 whole entry): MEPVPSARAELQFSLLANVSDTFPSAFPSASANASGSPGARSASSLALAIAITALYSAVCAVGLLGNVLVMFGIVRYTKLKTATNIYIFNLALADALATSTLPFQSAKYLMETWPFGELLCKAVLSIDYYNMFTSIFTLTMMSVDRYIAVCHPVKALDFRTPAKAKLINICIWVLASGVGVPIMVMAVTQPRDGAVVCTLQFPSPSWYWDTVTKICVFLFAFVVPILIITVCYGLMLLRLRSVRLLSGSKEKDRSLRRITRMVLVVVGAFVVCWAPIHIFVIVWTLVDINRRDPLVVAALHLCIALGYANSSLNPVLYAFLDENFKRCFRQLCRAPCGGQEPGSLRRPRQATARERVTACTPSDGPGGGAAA
Kind of test: Rat brain functional assay (GTPγ35S binding). The class given is biochemical. As to the method:
Rat brains are weighed and rinsed in ice-cold PBS (containing 2.5 mM EDTA, pH 7.4). The brains are homogenized with a polytron for 30 sec (rat) in ice-cold lysis buffer (50 mM Tris, pH 7.0,2.5 mM EDTA, with phenylmethylsulfonyl fluoride added just prior use to […] from a 0.5M stock in DMSO:ethanol).
The agonist activity of the compounds is measured by determining the degree to which the compounds receptor complex activates the binding of GTP to G-proteins to which the receptors are coupled. In the GTP binding assay, GTP[γ]^35S is combined with test compounds and membranes from HEK-293S cells expressing the cloned human opioid receptors or from homogenised rat or mouse brain. […] The EC50 and Emax values of compounds are determined from dose-response curves. […] For human a receptor functional assays, EC50 (low) is measured when the human δ receptors used in the assay were expressed at lower levels in comparison with those used in determining EC50 (high). […]
Rat brain membranes are thawed at 37° C., passed 3 times through a 25-gauge blunt-end needle and diluted in the GTPYS binding (50 mM Hepes, 20 mM NaOH, 100 mM NaCl, 1 mM EDTA, 5 mM MgCl2, pH 7.4, Add fresh: 1 mM DTT, 0.1% BSA). […] The EC50 and Emax of compounds are evaluated from 10-point dose-response curves done in 300 μl with the appropriate amount of membrane protein (20 μg/well) and 100000-130000 dpm of GTPγ^35S per well (0.11-0.14 nM). […]

Setting [4] is: Table 2, lower expression, relative to SNC80, range over compounds 1,2,4,5, read-out: Human δ %EMax (low).

The structures appear in SMILES notation. Like-named read-outs stand apart in the source and are kept apart here.

The term IC50 denotes the midpoint of a concentration-inhibition curve. Higher therefore signals weaker potency in that assay. For orientation: EC50 means the concentration needed to bring the measured effect to its halfway point. A higher EC50 goes with a less potent agent. Usually Emax stands for the size of the effect at its maximum, as opposed to the concentration needed.

T1 sequence (P41143 whole entry): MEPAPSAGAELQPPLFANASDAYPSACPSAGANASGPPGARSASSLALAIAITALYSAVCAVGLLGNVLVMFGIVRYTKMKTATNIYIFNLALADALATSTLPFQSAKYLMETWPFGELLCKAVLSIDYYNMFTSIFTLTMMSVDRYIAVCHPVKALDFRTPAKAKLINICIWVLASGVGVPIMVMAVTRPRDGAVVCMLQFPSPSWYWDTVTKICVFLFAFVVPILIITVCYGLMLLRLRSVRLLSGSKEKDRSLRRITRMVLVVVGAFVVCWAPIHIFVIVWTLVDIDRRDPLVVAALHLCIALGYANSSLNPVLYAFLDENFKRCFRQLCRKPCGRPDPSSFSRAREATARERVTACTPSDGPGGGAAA
T2 sequence (P35372 whole entry): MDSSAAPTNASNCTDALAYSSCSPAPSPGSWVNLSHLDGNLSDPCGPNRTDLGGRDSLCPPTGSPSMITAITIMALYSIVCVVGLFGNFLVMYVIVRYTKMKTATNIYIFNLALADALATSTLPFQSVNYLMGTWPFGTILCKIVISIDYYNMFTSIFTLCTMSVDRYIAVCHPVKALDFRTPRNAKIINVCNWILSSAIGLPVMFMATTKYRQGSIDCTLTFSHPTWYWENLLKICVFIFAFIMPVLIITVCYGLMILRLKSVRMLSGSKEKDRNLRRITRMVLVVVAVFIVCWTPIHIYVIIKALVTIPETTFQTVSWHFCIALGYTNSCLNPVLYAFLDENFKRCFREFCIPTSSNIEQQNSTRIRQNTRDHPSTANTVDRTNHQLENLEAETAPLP

As to `CCN(CC)C(=O)c1ccc(C(=C2CCN(Cc3cccs3)CC2)c2cccc(NS(C)(=O)=O)c2)cc1` [Compound 1, N,N-diethyl-4-{{3-[(methylsulfonyl)amino]phenyl}[1-(thien-2-ylmethyl)piperidin-4-ylidene]methyl}benzamide], the results for the IC50 on cloned human δ receptors [1] and at cloned human μ receptors were 0.18 to 0.35 nM and 77.9 to 301 nM, respectively. In addition, the EC50 on cloned human δ receptors [2] is 5.25 to 19.3 nM. Moreover, the Emax on cloned human δ receptors [2] (setting [4]) lay in the range of 106 to 126%.

In the case of `CCN(CC)C(=O)c1ccc(C(=C2CCN(Cc3ccco3)CC2)c2cccc(NS(C)(=O)=O)c2)cc1` [Compound 2, N,N-diethyl-4-[[l-(2-furanylmethyl)-4-piperidinylidene][3-[(methylsulfonyl)amino]phenyl]methyl]-benzamide], the IC50 at cloned human δ receptors [1] was in the range of 0.18 to 0.35 nM; on cloned human μ receptors it was 77.9 to 301 nM. For the same compound, the EC50 on cloned human δ receptors [2] lay in the range of 5.25 to 19.3 nM. Further, the Emax on cloned human δ receptors [2] (setting [4]) was in the range of 106 to 126%.

For `CCN(CC)C(=O)c1ccc(C(=C2CCN(Cc3ccccc3)CC2)c2cccc(NS(C)(=O)=O)c2)cc1` [Compound 3, N,N-diethyl-4-[[1-(phenylmethyl)-4-piperidinylidene][3-[(methylsulfonyl)amino]phenyl]methyl]-benzamide], the IC50 was determined as 0.56 nM at cloned human δ receptors [1], 1050 nM on cloned human κ receptors and 35 nM at cloned human μ receptors. Further, the EC50 on cloned human δ receptors [2] came out at 0.53 nM; in test [3] it was 1.32 nM. For the same compound, the Emax at cloned human δ receptors [2] (Table 1, higher expression, relative to standard δ agonist SNC80, read-out: Human δ % EMax (high)) stood at 99%; in test [3] (Table 1, rat brain membranes, relative to SNC80) it was 145%.

Turning to `CCN(CC)C(=O)c1ccc(C(=C2CCN(Cc3cccnc3)CC2)c2cccc(NS(C)(=O)=O)c2)cc1` [Compound 4, N,N-diethyl-4-[[3-[(methylsulfonyl)amino]phenyl][1-(3-pyridinylmethyl)4-piperidinylidene]methyl]-benzamide], the results for the IC50 on cloned human δ receptors [1] and at cloned human μ receptors were 0.18 to 0.35 nM and 77.9 to 301 nM, respectively. For the same compound, the EC50 on cloned human δ receptors [2] lay in the range of 5.25 to 19.3 nM. The Emax on cloned human δ receptors [2] (setting [4]) was 106 to 126%.

Consider `CCN(CC)C(=O)c1ccc(C(=C2CCN(Cc3nccs3)CC2)c2cccc(NS(C)(=O)=O)c2)cc1` [Compound 5], for which the half-inhibitory concentration (IC50) on cloned human δ receptors [1] was in the range of 0.18 to 0.35 nM; on cloned human μ receptors, 77.9 to 301 nM. This compound also returned an EC50 on cloned human δ receptors [2] of 5.25 to 19.3 nM. Further, on cloned human δ receptors [2] (setting [4]), the maximum response (Emax) is 106 to 126%.

Values taken from patent US20060148850A1, “4-{'3-(Sulfonylamino) phenyl!'1-(cyclymethyl) piperidin-4-ylidene! methyl}benazmide derivativess as delta opioid receptor ligands for the treatment of pain, anxiety and functional gastrointestinal disorder” (AstraZeneca AB, priority 2003, published 2006).
